Legend:
MCF-7 (Homo sapiens) = assay: Antiproliferative activity against human MCF-7 cells after 72 hrs by MTT assay; details: MCF-7, 72 h
[1] = Cytotoxicity against human MCF7 cells assessed as reduction in cell viability after 72 hrs by MTT assay; format: functional, cell-based; details: MCF7, 72 h
[2] = Cytotoxicity against human Bewo cells assessed as reduction in cell viability after 72 hrs by MTT assay; format: functional, cell-based
[3] = Cytotoxicity against human HL60 cells assessed as reduction in cell viability after 72 hrs by MTT assay; format: functional, cell-based; details: HL-60, 72 h
[4] = Solubility of compound in DMSO; format: physicochemical

Row | SMILES | IC50 (MCF-7 (Homo sapiens); read-out: IC50) | IC50 (MCF-7 (Homo sapiens); read-out: pIC50 (converted)) | IC50 [1] | IC50 [2] | IC50 [3] | solubility [4]
1 | c1ccc(CN2CCN(c3nnc4nncn4n3)CC2)cc1 | 27.3 µM | 27.3 µM | – | – | – | –
2 | O=C(c1ccccc1)N1CCN(c2nnc3nncn3n2)CC1 | 8.38 µM | 8.38 µM | – | – | – | –
3 | CCCCCC(=O)N1CCN(c2nnc3nncn3n2)CC1 | 5.26 µM | 5.26 µM | – | – | – | –
4 | CCCNc1nnc2nncn2n1 | 19.8 µM | 19.8 µM | – | – | – | –
5 | CCC(=O)N1CCN(c2nnc3nncn3n2)CC1 | 14.8 µM | 14.8 µM | – | – | – | –
6 | O=C(Cc1ccccc1)N1CCN(c2nnc3nncn3n2)CC1 | 3.08 µM | 3.08 µM | – | – | – | –
7 | c1ccc(CCNc2nnc3nncn3n2)cc1 | 1.24 µM | 1.24 µM | – | – | – | –
8 | c1nnc2nnc(N3CCCCC3)nn12 | 27.2 µM | 27.2 µM | – | – | – | –
9 | c1nnc2nnc(NC3CCCC3)nn12 | 88.2 µM | 88.1 µM | – | – | – | –
10 | CCCCNc1nnc2nncn2n1 | 13.7 µM | 13.7 µM | – | – | – | –
11 | O=C(c1ccc([N+](=O)[O-])cc1)N1CCN(c2nnc3nncn3n2)CC1 | 4.53 µM | 4.53 µM | – | – | – | –
12 | O=C(c1ccc(Cl)cc1)N1CCN(c2nnc3nncn3n2)CC1 | 12.8 µM | 12.9 µM | – | – | – | –
13 | CCCCC(=O)N1CCN(c2nnc3nncn3n2)CC1 | 2.76 µM | 2.75 µM | – | – | – | –
14 | CC(=O)N1CCN(c2nnc3nncn3n2)CC1 | 13.9 µM | 13.9 µM | – | – | – | –
15 | Nc1nnc2nncn2n1 | 46.5 µM | 46.5 µM | – | – | – | –
16 | OCCNc1nnc2nncn2n1 | 11.6 µM | 11.6 µM | – | – | – | –
17 | CN1CCN(c2nnc3nncn3n2)CC1 | 21.6 µM | 21.6 µM | – | – | – | –
18 | CC(C)(C)C(=O)N1CCN(c2nnc3nncn3n2)CC1 | 5.51 µM | 5.51 µM | – | – | – | –
19 | Cc1ccc(C(=O)N2CCN(c3nnc4nncn4n3)CC2)cc1 | 15.9 µM | 15.9 µM | – | – | – | –
20 | CCCC(=O)N1CCN(c2nnc3nncn3n2)CC1 | 6.91 µM | 6.92 µM | – | – | – | –
21 | CC(C)COC(=O)N1CCN(c2nnc3nncn3n2)CC1 | 5.39 µM | 5.38 µM | – | – | – | –
22 | c1nnc2nnc(NC3CCCCC3)nn12 | 3.51 µM | 3.52 µM | – | – | – | –
23 | O=C(C1CCCCC1)N1CCN(c2nnc3nncn3n2)CC1 | 1.26 µM | 1.26 µM | – | – | – | –
24 | Cc1nnc2nnc(N3CCCC3)nn12 | – | 44.9 µM | 44.8 µM | 5.36 µM | 29.7 µM | –
25 | O=[N+]([O-])c1ccc(-c2nnc3nnc(N4CCCC4)nn23)cc1 | – | – | > 100 µM | > 100 µM | > 100 µM | –
26 | C1CCC(c2nnc3nnc(N4CCCC4)nn23)CC1 | – | 37.7 µM | 37.7 µM | 22 µM | 23.8 µM | –
27 | Cc1ccc(-c2nnc3nnc(-n4nc(C)cc4C)nn23)cc1 | – | 36.2 µM | 36.2 µM | 7.54 µM | > 100 µM | –
28 | Clc1ccc(-c2nnc3nnc(N4CCCC4)nn23)c(Cl)c1 | – | 19.6 µM | 19.6 µM | 8.06 µM | 8.65 µM | –
29 | c1ccc(-c2nnc3nnc(N4CCCC4)nn23)cc1 | – | – | > 100 µM | > 100 µM | > 100 µM | Insoluble
